From ChEMBL document CHEMBL5465560, “Selectivity Literature for EUbOPEN Chemogenomic Library” (2024)

Experiments:
[1] = molecular target: T1, Serine/threonine-protein kinase LATS1 (Homo sapiens) (UniProt O95835); assay: Selectivity interaction (Kinase panel (KiNativ target engagement assay in Jurkat cells)) EUB0001635a LATS1; assay type: cell-based; details: at 1 µM
T1 sequence (whole entry): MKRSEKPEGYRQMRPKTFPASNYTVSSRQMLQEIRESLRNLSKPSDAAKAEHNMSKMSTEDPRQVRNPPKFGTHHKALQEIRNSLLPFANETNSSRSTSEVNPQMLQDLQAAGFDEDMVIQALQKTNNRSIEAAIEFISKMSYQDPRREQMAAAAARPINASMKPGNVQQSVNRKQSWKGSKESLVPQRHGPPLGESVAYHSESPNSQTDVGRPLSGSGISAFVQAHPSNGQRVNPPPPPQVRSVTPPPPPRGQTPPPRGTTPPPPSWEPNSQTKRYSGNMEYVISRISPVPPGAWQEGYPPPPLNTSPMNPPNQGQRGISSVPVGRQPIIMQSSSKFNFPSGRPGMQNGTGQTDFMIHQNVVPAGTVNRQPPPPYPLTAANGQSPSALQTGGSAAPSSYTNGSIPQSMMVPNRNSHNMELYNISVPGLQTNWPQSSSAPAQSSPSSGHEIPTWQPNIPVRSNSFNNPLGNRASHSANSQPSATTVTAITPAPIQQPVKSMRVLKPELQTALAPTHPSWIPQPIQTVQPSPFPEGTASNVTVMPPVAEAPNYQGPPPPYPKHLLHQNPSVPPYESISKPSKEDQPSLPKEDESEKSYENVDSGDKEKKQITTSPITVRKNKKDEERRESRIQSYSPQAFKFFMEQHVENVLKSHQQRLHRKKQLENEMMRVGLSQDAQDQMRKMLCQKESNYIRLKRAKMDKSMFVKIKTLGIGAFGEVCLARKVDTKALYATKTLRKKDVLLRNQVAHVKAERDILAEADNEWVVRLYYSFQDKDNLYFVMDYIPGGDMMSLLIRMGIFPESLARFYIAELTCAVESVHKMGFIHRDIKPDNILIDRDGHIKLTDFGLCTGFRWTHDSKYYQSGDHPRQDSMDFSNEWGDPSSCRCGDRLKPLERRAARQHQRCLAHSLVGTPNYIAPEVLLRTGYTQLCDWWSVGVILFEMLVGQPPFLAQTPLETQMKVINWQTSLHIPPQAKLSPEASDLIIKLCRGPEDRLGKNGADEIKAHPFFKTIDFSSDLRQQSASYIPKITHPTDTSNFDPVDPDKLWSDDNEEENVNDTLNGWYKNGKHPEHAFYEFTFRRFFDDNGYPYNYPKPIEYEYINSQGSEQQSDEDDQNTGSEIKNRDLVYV

[2] = molecular target: Serine/threonine-protein kinase pim-1 (Homo sapiens, UniProt P11309); details: at 10 µM
[3] = molecular target: Focal adhesion kinase 1 (Homo sapiens, UniProt Q05397); assay: Selectivity interaction (KinomeScan (DiscoverX)) EUB0000092b PTK2; details: at 10 µM
[4] = molecular target: Ephrin type-A receptor 5 (Homo sapiens) (UniProt P54756); assay: Selectivity interaction (Ambit KINOMEscan and KiNATiv profiling in Jurkat cells) EUB0000090b EPHA5; assay type: cell-based; details: at 1 µM
[5] = molecular target: Mitogen-activated protein kinase 10 (Homo sapiens, UniProt P53779); assay: Selectivity interaction (KinomeScan (DiscoverX)) EUB0000045b MAPK10
[6] = molecular target: Cyclin-dependent kinase 11B (Homo sapiens) (UniProt P21127); assay: Selectivity interaction (KinomeScan (DiscoverX)) EUB0000045b CDK11B
[7] = molecular target: Tyrosine-protein kinase CSK (Homo sapiens) (UniProt P41240); assay: Selectivity interaction (KinomeScan (DiscoverX)) EUB0000618a CSK; details: at 10 µM
[8] = test system: Mast/stem cell growth factor receptor Kit (Homo sapiens), P10721 [D816V]; assay: (§1) Selectivity interaction (KinomeScan (DiscoverX)) EUB0001619a KIT; details: at 1 µM
[9] = test system: Mast/stem cell growth factor receptor Kit (Homo sapiens), P10721 [V559D]; assay: as §1; details: at 1 µM
[10] = test system: Mast/stem cell growth factor receptor Kit (Homo sapiens), P10721 [D816H]; assay: as §1; details: at 1 µM
[11] = test system: Mast/stem cell growth factor receptor Kit (Homo sapiens), P10721 [A829P]; assay: as §1; details: at 1 µM
[12] = molecular target: Mast/stem cell growth factor receptor Kit (Homo sapiens, UniProt P10721); assay: as §1; details: at 1 µM
[13] = test system: Mast/stem cell growth factor receptor Kit (Homo sapiens), P10721 [V559D,V654A]; assay: as §1; details: at 1 µM
[14] = test system: Mast/stem cell growth factor receptor Kit (Homo sapiens), P10721 [V559D,T670I]; assay: as §1; details: at 1 µM
[15] = molecular target: Calcium/calmodulin-dependent protein kinase type II subunit beta (Homo sapiens) (UniProt Q13554); assay: Selectivity interaction (KinomeScan (DiscoverX)) EUB0000607a CAMK2B; details: at 10 µM
[16] = molecular target: T2, Serine/threonine-protein kinase Nek3 (Homo sapiens) (UniProt P51956); assay: Selectivity interaction (ProQinase) EUB0000171b NEK3
T2 sequence (whole entry): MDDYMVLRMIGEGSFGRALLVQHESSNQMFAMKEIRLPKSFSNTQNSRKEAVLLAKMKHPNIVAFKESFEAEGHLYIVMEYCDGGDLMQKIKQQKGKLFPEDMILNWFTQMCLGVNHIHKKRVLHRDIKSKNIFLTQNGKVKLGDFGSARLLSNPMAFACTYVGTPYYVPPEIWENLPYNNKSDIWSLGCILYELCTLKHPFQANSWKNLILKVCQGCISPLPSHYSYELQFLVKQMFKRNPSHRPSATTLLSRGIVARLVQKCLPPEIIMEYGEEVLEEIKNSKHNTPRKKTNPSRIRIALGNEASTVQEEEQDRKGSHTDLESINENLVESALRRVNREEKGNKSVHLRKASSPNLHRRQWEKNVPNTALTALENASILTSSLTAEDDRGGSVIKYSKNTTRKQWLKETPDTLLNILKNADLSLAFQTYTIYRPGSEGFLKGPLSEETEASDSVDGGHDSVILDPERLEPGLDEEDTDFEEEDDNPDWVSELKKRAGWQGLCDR

[17] = molecular target: T3, Lymphokine-activated killer T-cell-originated protein kinase (Homo sapiens) (UniProt Q96KB5); assay: Selectivity interaction (ProQinase) EUB0000171b PBK
T3 sequence (whole entry): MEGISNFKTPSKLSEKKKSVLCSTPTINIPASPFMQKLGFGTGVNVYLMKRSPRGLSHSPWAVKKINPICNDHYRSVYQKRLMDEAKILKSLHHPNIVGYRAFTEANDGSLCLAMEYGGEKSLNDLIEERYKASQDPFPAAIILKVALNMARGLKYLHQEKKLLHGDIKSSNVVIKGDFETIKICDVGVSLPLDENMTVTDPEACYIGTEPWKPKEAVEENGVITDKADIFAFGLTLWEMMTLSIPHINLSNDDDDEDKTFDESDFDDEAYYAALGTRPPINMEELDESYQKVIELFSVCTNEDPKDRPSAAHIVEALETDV

Chain of Cyclin-dependent kinase 11B (Homo sapiens) (P21127 whole entry): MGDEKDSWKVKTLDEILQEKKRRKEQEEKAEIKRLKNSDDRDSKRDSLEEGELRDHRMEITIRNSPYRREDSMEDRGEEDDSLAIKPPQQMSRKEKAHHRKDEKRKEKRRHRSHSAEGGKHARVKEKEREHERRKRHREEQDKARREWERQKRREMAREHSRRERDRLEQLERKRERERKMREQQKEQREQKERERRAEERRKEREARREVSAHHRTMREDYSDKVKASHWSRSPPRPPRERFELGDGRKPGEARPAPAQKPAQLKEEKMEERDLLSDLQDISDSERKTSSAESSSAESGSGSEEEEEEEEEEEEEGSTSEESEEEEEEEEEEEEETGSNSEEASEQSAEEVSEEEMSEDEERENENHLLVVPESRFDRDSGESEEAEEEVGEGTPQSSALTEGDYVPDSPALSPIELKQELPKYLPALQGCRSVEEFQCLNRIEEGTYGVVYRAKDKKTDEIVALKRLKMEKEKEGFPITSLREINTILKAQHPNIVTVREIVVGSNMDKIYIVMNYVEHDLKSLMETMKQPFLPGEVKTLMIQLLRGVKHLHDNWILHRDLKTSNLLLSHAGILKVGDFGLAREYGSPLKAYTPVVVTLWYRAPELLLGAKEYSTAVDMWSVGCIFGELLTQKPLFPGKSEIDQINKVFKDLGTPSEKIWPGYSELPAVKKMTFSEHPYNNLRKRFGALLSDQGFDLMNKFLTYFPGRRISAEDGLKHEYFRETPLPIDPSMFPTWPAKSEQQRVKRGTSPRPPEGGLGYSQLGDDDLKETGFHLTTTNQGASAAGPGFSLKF
Chain of Mitogen-activated protein kinase 10 (P53779 whole entry): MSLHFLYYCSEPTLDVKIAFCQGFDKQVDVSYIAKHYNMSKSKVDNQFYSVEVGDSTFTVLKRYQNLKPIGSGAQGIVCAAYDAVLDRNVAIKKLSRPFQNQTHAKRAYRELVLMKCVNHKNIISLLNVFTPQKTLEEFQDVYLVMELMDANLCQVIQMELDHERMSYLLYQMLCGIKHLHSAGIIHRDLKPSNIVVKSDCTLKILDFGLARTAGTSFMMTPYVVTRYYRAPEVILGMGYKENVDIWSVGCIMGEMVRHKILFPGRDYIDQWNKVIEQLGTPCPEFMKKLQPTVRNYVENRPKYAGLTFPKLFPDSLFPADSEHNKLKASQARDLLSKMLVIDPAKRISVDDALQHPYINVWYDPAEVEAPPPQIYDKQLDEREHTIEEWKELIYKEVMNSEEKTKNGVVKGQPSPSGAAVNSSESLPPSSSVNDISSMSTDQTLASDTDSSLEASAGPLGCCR
Chain of Mast/stem cell growth factor receptor Kit (Homo sapiens), P10721 [V559D,T670I] (P10721 whole entry V559D/T670I): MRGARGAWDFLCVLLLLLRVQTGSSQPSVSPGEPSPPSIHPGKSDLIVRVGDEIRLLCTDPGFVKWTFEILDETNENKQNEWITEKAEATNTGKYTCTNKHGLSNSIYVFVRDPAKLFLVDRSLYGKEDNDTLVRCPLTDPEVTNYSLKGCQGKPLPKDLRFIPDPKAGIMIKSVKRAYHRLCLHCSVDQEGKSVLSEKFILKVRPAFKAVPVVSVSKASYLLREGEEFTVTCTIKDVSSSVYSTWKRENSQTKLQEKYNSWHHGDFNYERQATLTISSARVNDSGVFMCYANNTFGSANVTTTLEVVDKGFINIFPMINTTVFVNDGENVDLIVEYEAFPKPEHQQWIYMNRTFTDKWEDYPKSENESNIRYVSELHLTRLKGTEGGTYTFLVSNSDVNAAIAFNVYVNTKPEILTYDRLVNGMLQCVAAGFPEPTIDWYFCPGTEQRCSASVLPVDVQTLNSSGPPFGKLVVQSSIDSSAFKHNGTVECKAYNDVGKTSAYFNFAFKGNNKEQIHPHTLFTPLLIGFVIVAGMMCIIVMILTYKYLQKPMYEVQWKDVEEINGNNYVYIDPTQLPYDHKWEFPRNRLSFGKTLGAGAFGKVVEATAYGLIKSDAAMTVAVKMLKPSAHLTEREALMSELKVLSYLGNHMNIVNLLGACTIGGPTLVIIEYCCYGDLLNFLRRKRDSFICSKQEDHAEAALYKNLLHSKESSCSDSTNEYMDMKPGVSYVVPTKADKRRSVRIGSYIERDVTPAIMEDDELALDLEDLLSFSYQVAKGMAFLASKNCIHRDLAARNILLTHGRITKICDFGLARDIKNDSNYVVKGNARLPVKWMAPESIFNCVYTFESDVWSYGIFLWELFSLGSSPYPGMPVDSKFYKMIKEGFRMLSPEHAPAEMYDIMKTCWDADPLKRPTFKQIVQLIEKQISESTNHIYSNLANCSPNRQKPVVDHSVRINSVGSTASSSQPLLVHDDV
Chain of Mast/stem cell growth factor receptor Kit (Homo sapiens), P10721 [D816H] (P10721 whole entry D816H): as the sequence (P10721 whole entry V559D/T670I) above, with D559V, I670T, D816H counted along it
Chain of Focal adhesion kinase 1 (Q05397 2-1052 limits assumed): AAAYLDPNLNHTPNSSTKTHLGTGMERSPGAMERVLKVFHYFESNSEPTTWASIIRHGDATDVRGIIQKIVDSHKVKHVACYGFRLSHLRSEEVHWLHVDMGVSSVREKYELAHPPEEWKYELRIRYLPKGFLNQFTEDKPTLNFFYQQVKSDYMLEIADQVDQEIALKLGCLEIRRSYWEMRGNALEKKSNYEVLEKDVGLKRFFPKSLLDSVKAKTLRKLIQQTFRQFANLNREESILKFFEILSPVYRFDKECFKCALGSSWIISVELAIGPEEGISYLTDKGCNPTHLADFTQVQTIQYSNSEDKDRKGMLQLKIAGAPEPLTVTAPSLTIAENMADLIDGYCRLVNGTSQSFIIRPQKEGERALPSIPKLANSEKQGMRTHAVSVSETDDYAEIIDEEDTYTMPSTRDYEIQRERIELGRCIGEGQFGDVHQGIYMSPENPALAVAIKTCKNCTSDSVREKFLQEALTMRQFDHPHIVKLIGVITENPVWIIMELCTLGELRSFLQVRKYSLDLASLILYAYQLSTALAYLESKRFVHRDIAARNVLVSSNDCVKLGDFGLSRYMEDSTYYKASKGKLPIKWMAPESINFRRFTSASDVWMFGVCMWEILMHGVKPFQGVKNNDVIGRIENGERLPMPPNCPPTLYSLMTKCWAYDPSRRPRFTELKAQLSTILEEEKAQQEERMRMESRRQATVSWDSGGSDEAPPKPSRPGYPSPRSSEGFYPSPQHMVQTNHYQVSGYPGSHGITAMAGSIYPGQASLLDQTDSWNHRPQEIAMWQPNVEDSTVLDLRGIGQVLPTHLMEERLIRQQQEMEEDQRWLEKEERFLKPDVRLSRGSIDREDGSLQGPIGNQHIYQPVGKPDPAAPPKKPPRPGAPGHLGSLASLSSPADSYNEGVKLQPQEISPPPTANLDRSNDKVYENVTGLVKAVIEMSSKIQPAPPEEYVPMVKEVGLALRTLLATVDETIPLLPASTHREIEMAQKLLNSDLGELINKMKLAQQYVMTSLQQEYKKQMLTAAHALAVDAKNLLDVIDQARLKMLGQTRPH
Chain of Tyrosine-protein kinase CSK (Homo sapiens) (P41240 2-450 limits assumed): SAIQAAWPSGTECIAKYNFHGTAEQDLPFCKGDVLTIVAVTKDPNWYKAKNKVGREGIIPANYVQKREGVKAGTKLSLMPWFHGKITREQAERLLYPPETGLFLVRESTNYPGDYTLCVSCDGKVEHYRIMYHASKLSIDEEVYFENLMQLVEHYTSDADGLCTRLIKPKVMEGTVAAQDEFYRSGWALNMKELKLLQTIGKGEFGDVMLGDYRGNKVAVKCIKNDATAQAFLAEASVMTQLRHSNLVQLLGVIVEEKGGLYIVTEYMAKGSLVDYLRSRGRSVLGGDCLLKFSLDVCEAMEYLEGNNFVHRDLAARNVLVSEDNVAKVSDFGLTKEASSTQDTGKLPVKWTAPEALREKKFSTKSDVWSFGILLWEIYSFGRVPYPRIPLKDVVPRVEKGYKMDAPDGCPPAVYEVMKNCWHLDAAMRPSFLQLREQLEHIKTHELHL
Chain of Serine/threonine-protein kinase pim-1 (P11309 whole entry, looked up): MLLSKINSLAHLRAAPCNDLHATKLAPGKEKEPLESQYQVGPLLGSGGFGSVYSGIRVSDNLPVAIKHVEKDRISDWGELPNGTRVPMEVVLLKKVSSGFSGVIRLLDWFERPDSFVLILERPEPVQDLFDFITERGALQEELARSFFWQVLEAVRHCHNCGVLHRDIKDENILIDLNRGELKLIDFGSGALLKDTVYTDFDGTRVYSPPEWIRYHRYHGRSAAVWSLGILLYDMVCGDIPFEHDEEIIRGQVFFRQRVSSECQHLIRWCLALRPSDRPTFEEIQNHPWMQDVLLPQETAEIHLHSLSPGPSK

Structure (SMILES): C=CC(=O)Nc1ccc(C(=O)Nc2[nH]nc3c2CN(C(=O)N[C@H](CN(C)C)c2ccccc2)C3(C)C)cc1
- % of engagement [1]: 7.2%

Structure (SMILES): COCC(=O)NC/C=C/c1ccc2ncnc(Nc3ccc(Oc4ccc(C)nc4)c(C)c3)c2c1 [CP-724714]
- % of control [2]: 100%

Structure (SMILES): CCC(=O)N1CCN(c2ccc(-n3c(=O)ccc4cnc5ccc(-c6cnc7ccccc7c6)cc5c43)cc2C(F)(F)F)CC1
- % of control [3]: 14%

Structure (SMILES): CN(C)C/C=C/C(=O)Nc1ccc(C(=O)N2CCCC(Nc3ncc(Cl)c(-c4c[nH]c5ccccc45)n3)C2)cc1 (stereo unspecified)
- % of control [4]: 89%

Structure (SMILES): C=CC(=O)Nc1cc(-n2c(=O)ccc3cnc4ccc(-c5ccc(NS(C)(=O)=O)cc5)cc4c32)ccc1C
- % of control ([5]; at 1 µM): 100%
- % of control ([5]; at 10 µM): 20%
- % of control ([6]; at 1 µM): 100%
- % of control ([6]; at 10 µM): 99%

Structure (SMILES): O[C@H]1CC[C@H](Nc2ncc3nc(Nc4c(F)cc(F)cc4F)n([C@H]4CCOC4)c3n2)CC1
- % of control [7]: 98%

Structure (SMILES): N#Cc1cccc(-c2c[nH]c3ncnc(N4CCOCC4)c23)c1
- % of control [8]: 99%
- % of control [9]: 100%
- % of control [10]: 92%
- % of control [11]: 50%
- % of control [12]: 100%
- % of control [13]: 72%
- % of control [14]: 100%

Structure (SMILES): CNC(=O)Nc1ccc(-c2nc(N3CC4CCC(C3)O4)c3cnn(C4CCC5(CC4)OCCO5)c3n2)cc1
- % of control [15]: 100%

Structure (SMILES): C=CC(=O)Nc1cccc(C(=O)Nc2ccc(Nc3cc(-c4[nH]c(SC)nc4C)ccn3)cc2)c1
- % of control ([16]; at 1 µM): 73%
- % of control ([16]; at 5 µM): 50%
- % of control ([17]; at 1 µM): 141%
- % of control ([17]; at 5 µM): 89%
